The NIST ThermoML archive (doi:10.1021/je060271a)

Details: 323.14 K, Liquid, Vibrating tube method

CCCCCCC(=O)OCC(COC(=O)CCCCCC)(COC(=O)CCCCCC)COC(=O)CCCCCC [pentaerythritol tetraheptanoate]
Details	mass density [kg/m3]
1867.1 kPa	956.8
1879.2 kPa	956.9
1889.3 kPa	956.8
1901.4 kPa	957
1911.9 kPa	956.9
1922.6 kPa	956.9
1933.4 kPa	956.9
1945.7 kPa	956.9
1956.8 kPa	957
1967.4 kPa	957
1980.8 kPa	957
1992.6 kPa	957
2003.7 kPa	957.1
2015.1 kPa	956.9
2026.2 kPa	956.9
2040.3 kPa	957.1
2051.7 kPa	957
2063 kPa	957
2075 kPa	956.9
2089.2 kPa	957.1
2101.9 kPa	957
2226.1 kPa	957
2302.3 kPa	957.1
2543.1 kPa	957.3
2581.9 kPa	957.3
2614.7 kPa	957.4
2750.1 kPa	957.5
2958.7 kPa	957.6
3185.1 kPa	957.8
3256.6 kPa	957.9
3279.3 kPa	957.8
3302.3 kPa	957.9
3329.7 kPa	957.8
3352.8 kPa	957.8
3377 kPa	957.9
3405.8 kPa	957.9
3429.7 kPa	958.1
3454.8 kPa	958
3479.6 kPa	958
3509.6 kPa	958
3534.6 kPa	958.1
3565.2 kPa	957.9
3591.4 kPa	958.1
3617.6 kPa	958
3974.4 kPa	958.4
4012.4 kPa	958.4
4041.1 kPa	958.3
4057.6 kPa	958.4
4063.1 kPa	958.4
4064.9 kPa	958.3
4065.5 kPa	958.5
4066.2 kPa	958.5
4067.3 kPa	958.5
4068.5 kPa	958.5
4069.4 kPa	958.6
4069.5 kPa	958.5
4070.6 kPa	958.4
4070.9 kPa	958.4
4071.6 kPa	958.4
4087 kPa	958.4
4104.9 kPa	958.6
4128 kPa	958.5
4142.2 kPa	958.4
4163.9 kPa	958.4
4182.2 kPa	958.4
4200.8 kPa	958.5
4223.1 kPa	958.5
4242.2 kPa	958.5
4261 kPa	958.6
4283.7 kPa	958.6
4303.6 kPa	958.5
4323.2 kPa	958.5
4347.4 kPa	958.6
4367.2 kPa	958.6
4384.2 kPa	958.6
4401.5 kPa	958.6
4419 kPa	958.8
4440.1 kPa	958.7
4458.6 kPa	958.6
4475.9 kPa	958.6
4487.7 kPa	958.7
4498.8 kPa	958.7
4507.3 kPa	958.8
4516.1 kPa	958.6
4528.2 kPa	958.7
4546.9 kPa	958.7
4567.4 kPa	958.6
4588 kPa	958.7
4612.9 kPa	958.7
4634.2 kPa	958.7
4656 kPa	958.8
4677.4 kPa	958.8
4703.4 kPa	958.9
4725.2 kPa	958.9
4747.6 kPa	958.9
4774 kPa	958.9
4796.4 kPa	958.9
4819 kPa	958.9
4845.9 kPa	958.9
4869.6 kPa	959
4893.1 kPa	959
4921 kPa	959
4945 kPa	958.9
4968.9 kPa	959
4997.5 kPa	959
5022.2 kPa	959
5047.1 kPa	959.1
5072.5 kPa	959.1
5103.3 kPa	959.1
5129.3 kPa	959.1
5156.3 kPa	959.1
5189.2 kPa	959.2
5217.4 kPa	959.1
5240.4 kPa	959.1
5260.4 kPa	959.1
5280.7 kPa	959.4
5304 kPa	959.2
5323.4 kPa	959.2
5347.3 kPa	959.4
5367.7 kPa	959.3
5388.5 kPa	959.3
5408.9 kPa	959.3
5429.5 kPa	959.2
5454.7 kPa	959.2
5475.8 kPa	959.3
5497.3 kPa	959.3
5522.7 kPa	959.4
5543.9 kPa	959.5
5565.6 kPa	959.4
5591.3 kPa	959.3
5613.3 kPa	959.5
5635.4 kPa	959.4
5662.4 kPa	959.4
5684.7 kPa	959.6
5707.9 kPa	959.4
5735.2 kPa	959.5
5758 kPa	959.5
5781.4 kPa	959.5
5804.9 kPa	959.7
5833.6 kPa	959.6
5857.5 kPa	959.6
5886 kPa	959.5
5910.2 kPa	959.7
5935.4 kPa	959.7
5964.8 kPa	959.7
5989.9 kPa	959.7
6015.7 kPa	959.6
6041.2 kPa	959.8
6072.5 kPa	959.7
6099.5 kPa	959.8
6127 kPa	959.7
6154.7 kPa	959.8
6180.8 kPa	959.8
6202.1 kPa	959.8
6224.2 kPa	959.8
6246.2 kPa	959.9
6272.6 kPa	959.8
6294.4 kPa	960
6316.9 kPa	959.8
6344 kPa	959.8
6366.6 kPa	959.9
6393.8 kPa	960
6417.3 kPa	960
6441.6 kPa	959.9
6466 kPa	960
6489.5 kPa	960.2
6513.7 kPa	960
6542.9 kPa	960
6566.4 kPa	960
6595.3 kPa	960.1
6619.5 kPa	960.1
6644.3 kPa	960
6674.1 kPa	960.1
6699.1 kPa	960.1
6724.7 kPa	960.1
6755.6 kPa	960.2
6782.2 kPa	960.3
6809 kPa	960.2
6835.2 kPa	960.2
6861.8 kPa	960.1
6893.8 kPa	960.2
6920.9 kPa	960.2
6948.7 kPa	960.3
6976.5 kPa	960.3
7009.5 kPa	960.4
7037.3 kPa	960.3
7072 kPa	960.4
7101 kPa	960.5
7131.4 kPa	960.4
7161.8 kPa	960.4
7190 kPa	960.5
7218.1 kPa	960.4
7240 kPa	960.6
7262.7 kPa	960.5
7289.6 kPa	960.7
7312 kPa	960.5
7334.9 kPa	960.6
7357.8 kPa	960.5
7385.4 kPa	960.6
7408.7 kPa	960.6
7433.1 kPa	960.6
7457.4 kPa	960.6
7486.4 kPa	960.7
7510.8 kPa	960.7
7534.2 kPa	960.6
7558.2 kPa	960.7
7587.6 kPa	960.7
7611.9 kPa	960.8
7637.3 kPa	960.8
7666.8 kPa	960.8
7692.5 kPa	960.7
7717.9 kPa	960.9
7743.3 kPa	960.9
7773.8 kPa	960.8
7799.7 kPa	960.7
7826.1 kPa	960.9
7857.2 kPa	961
7883.6 kPa	960.9
7910 kPa	961
7941.6 kPa	961
7968.3 kPa	961
7995.6 kPa	961
8028.4 kPa	961
8056 kPa	961.1
